# Like-named read-outs stand apart in the source and are kept apart here.
# Tests used:
# [1] = system: HT-29 tumor cells; assay: Anti-proliferative activity, SRB assay; type: cell-based, human; settings: 72 hours exposure, read-out: CELLULAR IC50 HT-29
# Description: We observed the surprising finding that compounds of the invention were useful in inhibiting proliferation of HT-29 tumor cells (see Table 3).
# 3,000-15,000 cells/well were exposed to the test compounds at various concentrations appropriate to determine an IC50, for 72 hours, and cell proliferation was measured using the SRB assay according to Shekan et al (J Natl Cancer Inst (1990) 82, 1107-112) in order to estimate the IC50 values shown in Table 3. Briefly, cells were plated in 96 well dishes 24 hours prior to compound addition. The assay was terminated with the addition of cold TCA to a final concentration of 10% and the plates were incubated for one hour at 4° C. The plates were then washed 5 times with water and 100 μl of a Sulforhodamine B solution (4%) was added to each well. The plate was then incubated for 10 minutes at room temperature before removal of unbound dye by washing with 1% acetic acid. The bound dye was solubilized with 10 mM Trizma base and the absorbance read at OD570. Inhibitory activity of the compounds was calculated as % inhibition of cell proliferation compared to cells treated with the solvent (DMSO).
# [2] = molecular target: B-Raf delta1-415 (Homo sapiens, UniProt P15056); assay: B-Raf kinase inhibition (MAPH filter plate, 33P-ATP, MEK1 substrate); settings: read-out: Biochemical IC50 B-Raf
# Excerpt: We characterized the in vitro inhibitory activity against protein kinases of compounds of the present invention by determining their IC50 values (see Table 2).
# Kinase: B-Raf delta1-415 (e.g., Upstate Cat. No. 14-530)
# Reaction Temperature: room temperature
# Assay Plate: 96 well U bottom plate (Greiner, 650161)
# MultiScreen-PH Plate: 96 well MAPH Filter Plates (Millipore, MAPHNOB50)
# Filter Washing Solution: 0.75% H3PO4
# Szintilation Liquid: Supermix Liquid Szintillator (PerkinElmer, 1200-439)
# Negative Control (C−): 100 mM EDTA, no Inhibitor
# Positive Control (C+): no Inhibitor
# Reaction Buffer: 20 mM Mops, pH 7.0 • 10 mM MgCl2 • 0.4 mM MnCl2 • 100 mM NaCl • 1 mM DTT • 0.01% NP40
# Final Assay Concentrations:
# Kinase: Kinase conc. yielding 50% substrate turnover as determined in titration experiment.
# Adenosine 5′-[γ-^33P]triphosphate: 12.5 μCi/ml (Amersham Biosciences, BF1000)
# Pipetting Sequence: • 1) Add 10 μl 4-fold concentrated substrate in 3-fold concentrated reaction buffer to each well of assay plate • 2) Add 10 μl 4-fold concentrated inhibitor in 4% DMSO in H2O to each well except to C− and C+ wells (starting point: final inhibitor concentration 10 μM; IC50 determination based on dilution series) • 3) Add 10 μl 4% DMSO in H2O to C− and C+ wells • 4) Add 10 μl 500 mM EDTA in H2O to C− wells • 5) Add 10 μl 50 μCi/ml adenosine 5′-[γ-^33P]triphosphate in H2O+4-fold cold ATP to each well • 6) Add 10 μl 4-fold concentrated kinase in reaction buffer to each well • 7) Incubate 1 hr at room temperature • 8) Add 10 μl 50 mM EDTA in H2O to each well except to C− wells • 9) Prepare MAPH plates by adding 200 μl 0.75% H3PO4 to each well • 10) Exhaust 0.75% H3PO4 using Millipore vacuum station • 11) Add 60 μl 0.75% H3PO4 to each well of MAPH filter plate • 12) Transfer 30 μl sample per well from assay plate to corresponding well of MAPH filter plate • 13) Incubate 30 min at room temperature • 14) Wash each well of MAPH filter plates 3× with 200 μl 0.75% H3PO4 using Millipore vacuum station • 15) Add 20 μl scintillation liquid to each well of MAPH filter plate • 16) Seal MAPH filter plate • 17) Store MAPH filter plate 30 min in darkness • 18) Quantify radioactivity using scintillation counter (MicroBeta, Perkin-Elmer)
# Chain of B-Raf delta1-415 (P15056 416-766): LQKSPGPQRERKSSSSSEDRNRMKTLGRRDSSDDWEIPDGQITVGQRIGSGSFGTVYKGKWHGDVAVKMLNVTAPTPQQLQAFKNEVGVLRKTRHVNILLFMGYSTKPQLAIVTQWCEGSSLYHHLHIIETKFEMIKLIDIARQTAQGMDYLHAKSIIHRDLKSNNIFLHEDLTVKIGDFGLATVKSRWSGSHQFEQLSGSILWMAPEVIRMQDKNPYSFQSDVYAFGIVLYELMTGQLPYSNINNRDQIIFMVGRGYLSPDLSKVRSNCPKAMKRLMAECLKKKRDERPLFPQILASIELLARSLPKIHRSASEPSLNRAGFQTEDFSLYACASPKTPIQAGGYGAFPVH
SMILES,"IC50 ([1]; Homo sapiens, HT-29, 72 h)",IC50 [2],IC50 [1]
"O=c1c(-c2c(Cl)cccc2Cl)cc2cnc(Nc3ccccc3)nc2n1OCc1cccnc1 [Compound 165, 6-(2,6-Dichlorophenyl)-2-phenylamino-8-(pyrid-3-ylmethyl)oxy-pyrido[2,3-d]pyrimidin-7-one]",< 1000 nM,< 500 nM,
COn1c(=O)c(-c2c(Cl)cccc2Cl)cc2cnc(Nc3ccc(CN4CC(O)C4)cc3)nc21 [Compound 168],< 1000 nM,< 500 nM,
"COn1c(=O)c(-c2c(Cl)cccc2Cl)cc2cnc(NCc3cccnc3)nc21 [Compound 146, 6-(2,6-Dichlorophenyl)-8-methoxy-2-pyrid-3-ylmethylamino-pyrido[2,3-d]pyrimidin-7-one]",< 10000 nM,< 500 nM,
"COn1c(=O)c(-c2c(Cl)cccc2Cl)cc2cnc(Nc3ccc(OCCN4CC[C@H](O)C4)cc3)nc21 [Compound 92, 6-(2,6-Dichlorophenyl)-2-(4-(2-(3-(S)-hydroxypyrrolidino)ethyl)oxyphenyl)amino-8-methoxy-pyrido[2,3-d]pyrimidin-7-one]",< 1000 nM,< 100 nM,
"COn1c(=O)c(-c2c(Cl)cccc2Cl)cc2cnc(Nc3ccc(OCCN4CCCC4)cc3)nc21 [Compound 91, 6-(2,6-Dichlorophenyl)-8-methoxy-2-(4-(2-pyrrolidinoethyl)oxyphenyl) amino-pyrido[2,3-d]pyrimidin-7-one]",< 1000 nM,< 500 nM,
"COCCOn1c(=O)c(-c2c(F)cccc2Cl)cc2cnc(Nc3ccc(N4CCNCC4)cc3)nc21 [Compound 216, 6-(2-Chloro-6-fluorophenyl)-8-(2-methoxyethyl)oxy-2-(4-piperazinophenyl)-amino-pyrido[2,3-d]pyrimidin-7-one]",< 1000 nM,< 500 nM,
O=c1c(-c2c(F)cccc2Cl)cc2cnc(Nc3ccc(N4CCOCC4)cc3)nc2n1OC[C@H]1CCNC1 [Compound 155],< 1000 nM,< 100 nM,
"Cn1cc(Nc2ncc3cc(-c4c(Cl)cccc4Cl)c(=O)n(OC[C@H](O)CO)c3n2)cc1C(=O)NCCN1CCCC1 [Compound 108, 6-(2,6-Dichlorophenyl)-8-(2-(R)-2,3-dihydroxypropyl)oxy-2-(5-(2-pyrrolidinoethyl)aminocarbonyl-1-methyl-pyrrol-3-yl)-amino-pyrido[2,3-d]pyrimidin-7-one]",< 1000 nM,< 500 nM,
"COn1c(=O)c(-c2c(F)cccc2Cl)cc2cnc(Nc3cc(C(=O)N(C)CCO)n(C)c3)nc21 [Compound 193, 6-(2-Chloro-6-fluorophenyl)-2-(5-N-(2-hydroxyethyl)-N-methyl-aminocarbonyl-1-methyl-pyrrol-3-yl)-amino-8-methoxy-pyrido[2,3-d]pyrimidin-7-one]",< 1000 nM,< 100 nM,
"COn1c(=O)c(-c2c(Cl)cccc2Cl)cc2cnc(Nc3cc(C(=O)NCCO)n(C)c3)nc21 [Compound 82, 6-(2,6-Dichlorophenyl)-2-(5-(2-hydroxyethyl)aminocarbonyl-1-methyl-pyrrol-3-yl)-amino-8-methoxy-pyrido[2,3-d]pyrimidin-7-one]",< 1000 nM,< 500 nM,
"COn1c(=O)c(-c2c(Cl)cccc2Cl)cc2cnc(Nc3ccc(N4CCNCC4)cc3)nc21 [Compound 184, 6-(2,6-Dichlorophenyl)-8-methoxy-2-(4-piperazinophenyl)-amino-pyrido[2,3-d]pyrimidin-7-one]",< 1000 nM,< 100 nM,
"COn1c(=O)c(-c2c(Cl)cccc2Cl)cc2cnc(Nc3ccc(C)cc3)nc21 [Compound 150, 6-(2,6-Dichlorophenyl)-2-(4-methylphenyl)-amino-8-methoxy-pyrido[2,3-d]pyrimidin-7-one]",< 10000 nM,> 1000 nM,
CC(C)(C)On1c(=O)c(Br)cc2cnc(Nc3ccccc3)nc21 [Compound 239],> 10000 nM,> 10000 nM,
"COc1cccc(Nc2ncc3cc(-c4c(F)cccc4Cl)c(=O)n(OC[C@H](O)CO)c3n2)c1 [Compound 76, 6-(2-Chloro-6-fluorophenyl)-8-(2-(R)-2,3-dihydroxypropyl)oxy-2-(3-methoxyphenyl)amino-pyrido[2,3-d]pyrimidin-7-one]",< 1000 nM,< 500 nM,
COC(=O)c1cc(Nc2ncc3cc(-c4c(C)cccc4C)c(=O)n(OC)c3n2)cn1C [Compound 79],< 1000 nM,< 500 nM,
"COn1c(=O)c(-c2c(Cl)cccc2Cl)cc2cnc(NCCOC(=O)[C@@H](N)C(C)C)nc21 [Compound 109, 2-((2-(S)-2-Amino-3-methylbutanoyloxy)ethyl)-amino-6-(2,6-dichlorophenyl)-8-methoxy-pyrido[2,3-d]pyrimidin-7-one]",< 10000 nM,< 500 nM,
"O=c1c(-c2c(Cl)cccc2Cl)cc2cnc(Nc3ccccc3)nc2n1OCC1CCOCC1 [Compound 186, 6-(2,6-Dichlorophenyl)-2-phenylamino-8-(tetrahydropyran-4-ylmethyl)oxy-pyrido[2,3-d]pyrimidin-7-one]",< 1000 nM,< 500 nM,
"COn1c(=O)c(-c2c(Cl)cccc2Cl)cc2cnc(Nc3ccc(OCCO)cc3)nc21 [Compound 89, 6-(2,6-Dichlorophenyl)-2-(4-(2-hydroxyethyl)oxyphenyl) amino-8-methoxy-pyrido[2,3-d]pyrimidin-7-one]",< 1000 nM,< 100 nM,
"CCNS(=O)(=O)c1cccc(Nc2ncc3cc(-c4c(Cl)cccc4Cl)c(=O)n(OC)c3n2)c1 [Compound 122, 6-(2,6-Dichlorophenyl)-2-(3-ethylaminosulfonylphenyl)-amino-8-methoxy-pyrido[2,3-d]pyrimidin-7-one]",< 1000 nM,< 500 nM,
"COn1c(=O)c(-c2c(Cl)cccc2Cl)cc2cnc(Nc3cc(C(=O)N4CCOCC4)n(C)c3)nc21 [Compound 137, 6-(2,6-Dichlorophenyl)-8-methoxy-2-(5-morpholinocarbonyl-1-methyl-pyrrol-3-yl)-amino-pyrido[2,3-d]pyrimidin-7-one]",< 1000 nM,< 100 nM,
O=c1c(-c2c(F)cccc2Cl)cc2cnc(Nc3ccc(N4CCOCC4)cc3)nc2n1OC[C@@H](O)CO [Compound 148],< 1000 nM,< 100 nM,
"COn1c(=O)c(-c2c(Cl)cccc2Cl)cc2cnc(Nc3nc(C(=O)N(C)CCO)cs3)nc21 [Compound 138, 6-(2,6-Dichlorophenyl)-8-methoxy-2-(4-N-(2-hydroxyethyl)-N-methyl-aminocarbonyl-thiazol-2-yl)-amino-pyrido[2,3-d]pyrimidin-7-one]",,< 1000 nM,< 10000 nM
"COn1c(=O)c(-c2c(Cl)cccc2Cl)cc2cnc(Nc3cc(C(=O)N(C)CCOC(=O)C(C)(C)C)n(C)c3)nc21 [Compound 140, 6-(2,6-Dichlorophenyl)-8-methoxy-2-(5-N-(2-(2,2-dimethylpropanoyl)oxyethyl)-N-methyl-aminocarbonyl-1-methyl-pyrrol-3-yl)-amino-pyrido[2,3-d]pyrimidin-7-one]",< 1000 nM,< 500 nM,
"COCCN1CCN(C(=O)c2cc(Nc3ncc4cc(-c5c(Cl)cccc5Cl)c(=O)n(OC)c4n3)cn2C)CC1 [Compound 188, 6-(2,6-Dichlorophenyl)-8-methoxy-2-(5-(4-(2-methoxy)ethyl)piperazino-carbonyl-1-methyl-pyrrol-3-yl)-amino-pyrido[2,3-d]pyrimidin-7-one]",< 1000 nM,< 500 nM,
"COn1c(=O)c(-c2c(Cl)cccc2Cl)cc2cnc(Nc3ccc(/C=N/O)cc3)nc21 [Compound 210, 2-(4-(hydroximino)methylphenyl)-amino-6-(2,6-dichlorophenyl)-8-methoxy-pyrido[2,3-d]pyrimidin-7-one]",< 1000 nM,< 500 nM,

# — patent US8518958B2, “Pyrido [2,3-D] pyrimidines and their use as kinase inhibitors” (Forma Therapeutics, Inc., priority 2006, dated 2013)
